Source: patent US9341616B2, “Sweet taste receptor chimeric proteins and use thereof” (AJINOMOTO CO., INC., priority 2014, dated 2016)
Residues, ends and D or L forms follow the SMILES beside them.

Columns and labels:
hT1R2/mT1R3 = molecular target: T1, hT1R2/mT1R3 (UniProt Q8TE23+Q925D8); assay: Intracellular calcium assay (ΔF/F, S/N ratio) in HEK293E cells expressing hT1R2 and mT1R3 with Gα15-trans48LD; assay type: cell-based, human/mouse
T1 construct: expressed in transfected cells; host or cells: HEK293E
T1 sequence (Q8TE23 20-839): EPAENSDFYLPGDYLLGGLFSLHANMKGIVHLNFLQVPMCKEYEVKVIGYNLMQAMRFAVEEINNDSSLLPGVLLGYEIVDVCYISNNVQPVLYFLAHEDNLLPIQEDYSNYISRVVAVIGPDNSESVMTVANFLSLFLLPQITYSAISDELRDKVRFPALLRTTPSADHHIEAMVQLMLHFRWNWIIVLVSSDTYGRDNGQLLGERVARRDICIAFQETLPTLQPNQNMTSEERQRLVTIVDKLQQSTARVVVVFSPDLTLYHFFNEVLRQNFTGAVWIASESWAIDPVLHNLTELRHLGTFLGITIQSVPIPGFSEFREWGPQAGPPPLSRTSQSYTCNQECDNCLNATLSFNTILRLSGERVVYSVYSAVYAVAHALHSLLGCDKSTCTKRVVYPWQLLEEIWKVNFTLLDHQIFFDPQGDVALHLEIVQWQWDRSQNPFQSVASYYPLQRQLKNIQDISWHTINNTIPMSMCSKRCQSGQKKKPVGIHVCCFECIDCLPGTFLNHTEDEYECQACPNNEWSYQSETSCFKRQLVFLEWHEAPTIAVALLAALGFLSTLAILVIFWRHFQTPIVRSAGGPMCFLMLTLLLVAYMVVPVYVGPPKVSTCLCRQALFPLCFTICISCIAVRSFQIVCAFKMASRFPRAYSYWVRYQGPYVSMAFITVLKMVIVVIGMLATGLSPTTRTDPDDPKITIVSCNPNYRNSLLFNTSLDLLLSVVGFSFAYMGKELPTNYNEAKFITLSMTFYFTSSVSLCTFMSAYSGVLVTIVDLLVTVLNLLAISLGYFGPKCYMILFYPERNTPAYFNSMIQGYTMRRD
T1 sequence (Q925D8 21-858): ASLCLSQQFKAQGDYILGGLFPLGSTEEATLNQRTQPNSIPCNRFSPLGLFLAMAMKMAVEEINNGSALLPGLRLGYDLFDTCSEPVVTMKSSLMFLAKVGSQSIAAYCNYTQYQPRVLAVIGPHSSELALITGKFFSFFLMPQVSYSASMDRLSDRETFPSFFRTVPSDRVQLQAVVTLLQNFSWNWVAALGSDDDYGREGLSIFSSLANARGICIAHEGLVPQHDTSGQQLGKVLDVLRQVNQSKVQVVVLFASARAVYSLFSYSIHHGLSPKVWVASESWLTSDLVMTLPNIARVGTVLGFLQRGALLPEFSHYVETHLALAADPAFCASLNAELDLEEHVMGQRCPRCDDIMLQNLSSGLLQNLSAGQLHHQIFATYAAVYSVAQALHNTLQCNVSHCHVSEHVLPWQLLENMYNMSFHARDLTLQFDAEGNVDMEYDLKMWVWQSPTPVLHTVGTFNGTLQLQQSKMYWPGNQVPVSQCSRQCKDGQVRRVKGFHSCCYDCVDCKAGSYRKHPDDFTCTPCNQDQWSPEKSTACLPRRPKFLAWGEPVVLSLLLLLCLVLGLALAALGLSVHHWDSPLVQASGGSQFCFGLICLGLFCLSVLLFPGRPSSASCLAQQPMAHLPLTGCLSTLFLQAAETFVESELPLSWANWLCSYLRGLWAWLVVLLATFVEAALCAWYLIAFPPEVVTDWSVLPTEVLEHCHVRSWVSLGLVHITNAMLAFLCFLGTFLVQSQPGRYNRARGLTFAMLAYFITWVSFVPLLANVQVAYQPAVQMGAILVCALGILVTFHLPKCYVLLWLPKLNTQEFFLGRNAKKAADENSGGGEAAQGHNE
Experimental: The HEK293E cells maintained by using the DMEM/Ham's F-12 medium (Nakarai Tesque) containing 10% fetal bovine serum ([sequence]) and 1% Pen Strep (GIBCO) were washed with D-PBS(−) (Nakarai Tesque), and collected from the flask by using 0.25% Trypsin EDTA (GIBCO). The cells were centrifuged (1,200 rpm, 3 minutes), and after the supernatant was removed, suspended in 5% FBS DMEM/Ham's F-12 at a density of 0.75×10^7 cell/ml. This suspension (10 ml) was put into a 150 cm^3 flask (IWAKI), and culture was performed overnight (37° C., 5% CO2). On the next day, the medium was exchanged with Opti-MEM (30 ml, Invitrogen, Life Technologies), a sweet taste receptor gene mixture (Gα15-trans48LD gene, various kinds of T1R2 chimeric genes, and various kinds of T1R3 chimeric genes, 63.8 μg in total) prepared by using Opti-MEM and Lipofectamin 2000 (Invitrogen, Life Technologies) was slowly added to the cell suspension, and incubation was performed (37° C., 5% CO2) for 6 hours to attain gene transfer.
After the gene transfer, the cells were washed with D-PBS(−), then removed from the flask by using 0.25% Trypsin EDTA (GIBCO), and collected. After the cell number was counted, the cells were suspended in the 5% FBS DMEM medium (2.78 mM glucose, GIBCO) at a density of 0.5×10^6 cell/ml. This cell suspension was put into wells of D-Lysine coat 96-well plate (BD bioscience) in such a volume that the cell count is 7.0×10^4 cells/well, and the cells were cultured overnight.
After the culture, all the medium of the 96 wells were discarded. 200 μl of the staining solution for measurement of intracellular calcium ion′ Calcium Assay Kit Express (Molecular Device), diluted 80 times with an assay buffer (20 mM HEPES, 146 mM NaCl, 1 mM MgSO4, 1.39 mM glucose, 1 mM CaC12, 2.5 mM Probenecid, 0.05% bovine serum albumin) was added to each well, and the plate was left standing at 37° C. for 30 minutes and at room temperature for 45 minutes to perform staining. After the staining, 50 μl of a solution of stimulant (sweet taste substance) prepared with the assay buffer was added to each well, and the fluorescence value was measured for 120 seconds after the stimulation by using FDSSμEELL (Hamamatsu Photonics). By measuring the fluorescence value (Ex. 480 nm, Em. 540 nm) before and after the stimulation, the change of the intracellular free calcium ion concentration caused by addition of the stimulant via a sweet taste receptor was quantitatively investigated. The measurement and analysis of the fluorescence value was performed by using the software attached to FDSSμEELL (FDSS7000EX), and ΔF/F value was calculated in accordance with the following equation, and used for the evaluation. ΔF/F=(Maximum fluorescence value after stimulation−Minimum fluorescence value after stimulation)/(Fluorescence value before stimulation)
Furthermore, by using the ΔF/F values obtained when each sweet taste substance was added, the S/N ratio was calculated. Specifically, the S/N value was calculated by using the minimum value of ΔF/F obtained when each substance was added at various concentrations as noise (N) value, and the similarly obtained maximum value of ΔF/F as the signal (S) value, and used as an index for sensitivity of the measurement of the activity of each receptor. That is, a higher S/N value means a higher sensitivity for detection of an interaction of a sweet taste receptor and a test substance, which makes it easier to detect stimulation with a sweet taste substance or sweet taste-regulating substance of a lower concentration.

hT1R2/hT1R3 = molecular target: T2, hT1R2/hT1R3 (Homo sapiens, UniProt Q7RTX0+Q8TE23, C757R); assay: Intracellular calcium assay (ΔF/F, S/N ratio) in HEK293E cells expressing hT1R2 and hT1R3 with Gα15-trans48LD; assay type: cell-based;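 note: fluorescence read over 120 s after adding sweet stimulant across several concentrations, S/N taken as highest over lowest ΔF/F, higher meaning more sensitive detection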
T2 construct: expressed in transfected cells; host or cells: HEK293E
T2 sequence (Q8TE23 20-839): T1 sequence (Q8TE23 20-839)
T2 sequence (Q7RTX0 21-852 C757R): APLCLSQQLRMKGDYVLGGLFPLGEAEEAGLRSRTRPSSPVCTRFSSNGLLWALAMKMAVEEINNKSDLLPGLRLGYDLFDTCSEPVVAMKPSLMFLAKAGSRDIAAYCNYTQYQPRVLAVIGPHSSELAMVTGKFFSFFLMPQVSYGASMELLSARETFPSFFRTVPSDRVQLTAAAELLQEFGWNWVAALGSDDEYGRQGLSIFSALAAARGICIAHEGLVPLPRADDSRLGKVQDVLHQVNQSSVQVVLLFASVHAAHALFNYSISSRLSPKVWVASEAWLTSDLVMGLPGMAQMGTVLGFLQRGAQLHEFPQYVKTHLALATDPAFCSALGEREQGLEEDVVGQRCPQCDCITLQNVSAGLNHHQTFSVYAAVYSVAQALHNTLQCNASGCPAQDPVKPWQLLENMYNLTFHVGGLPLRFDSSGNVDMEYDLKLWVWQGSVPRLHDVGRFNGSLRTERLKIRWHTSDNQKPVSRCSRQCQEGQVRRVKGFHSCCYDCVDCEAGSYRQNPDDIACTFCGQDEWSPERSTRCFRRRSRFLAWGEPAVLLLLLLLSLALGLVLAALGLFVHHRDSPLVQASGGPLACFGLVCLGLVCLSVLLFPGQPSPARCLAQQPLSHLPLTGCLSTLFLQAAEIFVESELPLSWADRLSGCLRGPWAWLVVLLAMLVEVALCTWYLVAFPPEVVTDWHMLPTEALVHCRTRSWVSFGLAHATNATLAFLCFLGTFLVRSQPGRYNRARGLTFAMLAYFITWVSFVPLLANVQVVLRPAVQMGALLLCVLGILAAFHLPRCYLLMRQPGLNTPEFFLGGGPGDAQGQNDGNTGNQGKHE
Experimental: The HEK293E cells maintained by using the DMEM/Ham's F-12 medium (Nakarai Tesque) containing 10% fetal bovine serum ([sequence]) and 1% Pen Strep (GIBCO) were washed with D-PBS(−) (Nakarai Tesque), and collected from the flask by using 0.25% Trypsin EDTA (GIBCO). The cells were centrifuged (1,200 rpm, 3 minutes), and after the supernatant was removed, suspended in 5% FBS DMEM/Ham's F-12 at a density of 0.75×10^7 cell/ml. This suspension (10 ml) was put into a 150 cm^3 flask (IWAKI), and culture was performed overnight (37° C., 5% CO2).
After the gene transfer, the cells were washed with D-PBS(−), then removed from the flask by using 0.25% Trypsin EDTA (GIBCO), and collected. […] This cell suspension was put into wells of D-Lysine coat 96-well plate (BD bioscience) in such a volume that the cell count is 7.0×10^4 cells/well, and the cells were cultured overnight.
After the culture, all the medium of the 96 wells were discarded. […] After the staining, 50 μl of a solution of stimulant (sweet taste substance) prepared with the assay buffer was added to each well, and the fluorescence value was measured for 120 seconds after the stimulation by using FDSSμEELL (Hamamatsu Photonics). […] The measurement and analysis of the fluorescence value was performed by using the software attached to FDSSμEELL (FDSS7000EX), and ΔF/F value was calculated in accordance with the following equation, and used for the evaluation. ΔF/F=(Maximum fluorescence value after stimulation−Minimum fluorescence value after stimulation)/(Fluorescence value before stimulation)
Furthermore, by using the ΔF/F values obtained when each sweet taste substance was added, the S/N ratio was calculated. Specifically, the S/N value was calculated by using the minimum value of ΔF/F obtained when each substance was added at various concentrations as noise (N) value, and the similarly obtained maximum value of ΔF/F as the signal (S) value, and used as an index for sensitivity of the measurement of the activity of each receptor.

[1] = Table 3, genes hT2/mT3 (hT1R2, mT1R3)
[2] = Table 4, genes hT2/mT3 (hT1R2, mT1R3)
[3] = Table 3, genes hT2/hT3 (hT1R2, hT1R3), max ΔF/F over min ΔF/F across concentrations
[4] = Table 4, genes hT2/hT3 (hT1R2, hT1R3)
[5] = Table 5, genes hT2/hT3 (hT1R2, hT1R3)
[6] = Table 6, genes hT2/hT3 (hT1R2, hT1Rm3)

| Structure (SMILES) | S/N (hT1R2/mT1R3; [1]) | S/N (hT1R2/mT1R3; [2]) | S/N (hT1R2/hT1R3; [3]) | S/N (hT1R2/hT1R3; [4]) | S/N (hT1R2/hT1R3; [5]) | S/N (hT1R2/hT1R3; [6]) |
| --- | --- | --- | --- | --- | --- | --- |
| OC[C@H]1O[C@H](O[C@]2(CCl)O[C@H](CCl)[C@@H](O)[C@@H]2O)[C@H](O)[C@@H](O)[C@H]1Cl [Sucralose, sucralose] | 4.0 | 4.0 | 3.3 | 3.3 | 3.3 | 3.3 |
| C[C@H](NC(=Nc1ccc(C#N)cc1)NCC(=O)O)c1ccccc1 [SC-45647, [3-[(S)-1-phenylethyl]-2-(4-cyanophenyl)guanidino]acetic acid] | 3.9 | 3.9 | 3.0 | 3.0 | 3.0 | 3.0 |
| COc1ccc(CCC(=O)c2c(O)cc(O[C@@H]3O[C@H](CO)[C@@H](O)[C@H](O)[C@H]3O[C@@H]3O[C@@H](C)[C@H](O)[C@@H](O)[C@H]3O)cc2O)cc1O [NHDC, neohesperidin dihydrochalcone] | – | – | – | – | 2.0 | 2.0 |
| COC(=O)[C@H](Cc1ccccc1)NC(=O)[C@H](CC(=O)O)NCCCc1ccc(OC)c(O)c1 [Advantame, advantame] | 4.6 | 4.6 | 3.2 | 3.2 | 3.2 | 3.2 |
| COC(=O)[C@H](Cc1ccccc1)NC(=O)[C@H](CC(=O)O)NCCC(C)(C)C [Neotame, neotame] | 3.4 | 3.4 | 2.9 | 2.9 | 2.9 | 2.9 |
| COC(=O)[C@H](Cc1ccccc1)NC(=O)[C@@H](N)CC(=O)O [Aspartame, aspartame] (HELM PEPTIDE1{D.F.[CO[*:1]]}$$$$V2.0) | 2.3 | 2.3 | 1.6 | 1.6 | 1.6 | 1.6 |
| OC[C@H]1O[C@@](CO)(O[C@H]2O[C@H](CO)[C@@H](O)[C@H](O)[C@H]2O)[C@@H](O)[C@@H]1O [Sucrose, sucrose] | 2.4 | 2.4 | 1.9 | 1.9 | 1.9 | 1.9 |
| CC1=CC(=O)NS(=O)(=O)O1 [Acesulfame K, acesulfame potassium] | 2.4 | 2.4 | 1.9 | 1.9 | 1.9 | 1.9 |
| O=C1NS(=O)(=O)c2ccccc21.[Na] [Saccharin Na, sodium saccharin] | 2.8 | 2.8 | 2.5 | 2.5 | 2.5 | 2.5 |
